US8846330B2, “Methods and kits for the diagnosis of RyR1-related diseases” (The Henry M. Jackson Foundation for the Advancement of …, priority 2008, dated 2014)
Entries after “also recorded” stand apart in the source; their conditions may differ.

Columns and labels:
lymphocyte cells [1] = experiment: 4CmC-induced adenosine in swine lymphocyte cells, nucleosides assay (Example 4); assay type: cell-based; settings: for effect of azumolene on 4CmC-induced adenosine: azumolene up to 1 mM (0-1000 μM)
Procedure: Isolation of lymphocytes from whole blood: Lymphocyte cells were isolated from whole blood by Ficoll-Hypaque density gradient centrifugation technique (see Boyum A., Scand. J. Clip. Lab. 97:77-89 (1968)). Isolated lymphocyte cells were dispensed into 3-volume normal Hanks' balanced salt solution (HBSS) and centrifuged (10 minutes at 1000 RPM). The pellet was re-suspended in HBSS to lyse contaminating erythrocytes and spun. The later step was repeated one more time. To maintain simplicity of the protocol for possible MH diagnostic purposes no further purification was attempted. Lymphocyte cells were then cultured in RPMI-1640 media supplemented with 10% fetal bovine serum, […] penicillin and 2 mM glutamine. Cell cultures were incubated at 37° C. in a humidified chamber with 5% CO2. All experiments were completed within 4 days after isolation of lymphocyte cells from whole blood samples.
Nucleosides Assay Protocol: Briefly, lymphocyte cells (1−2×10^6 cells/test) were suspended in HBSS with or without Ca^2+/Mg^2+ (as indicated for each experiment) plus 0.1% bovine serum albumin (BSA). Experiments were carried out in the presence of the adenosine deaminase inhibitor erythro-9-(2-hydroxy-3-nonyl) adenine-HCl ([…]) to prevent deamination of adenosine to inosine (Lorbar et al., J Mol Cell Cardiol 31: 401-12 (1999)) and incubated at 37° C. for 10 minutes followed by treatment with different 4CmC concentrations (0.05-10 mM). Further incubation at 37° C. for an additional 45 minutes was also carried out. Final volumes of the test tubes were adjusted to 0.2 ml using HBSS buffer. Termination of the cell activity and purification of samples was accomplished by addition of 0.1 ml 12% perchloric acid followed by centrifugation at 5000 RPM for 10 minutes. Aliquots of the supernatant (50 μl) were assayed for adenosine and inosine content using HPLC.
HPLC Conditions: The HPLC system consisted of a Waters Symmetry C18 column (4.6×250 mm) and mobile phase of 94% KH2PO4 (50 mM, pH 4.6) containing 1-heptanesulfonic acid (0.5 mM) and 6% acetonitrile. Under these conditions, retention times for inosine and adenosine were 4 and 7.3 min, respectively. Peak width of inosine and adenosine were 18 and 36 seconds, respectively. Eluting compounds were detected by their absorbance at 254 nm using a Waters photodiode array detector (model 996). Sample adenosine and inosine concentrations were obtained using a calibrated standard curve of concentrations vs. peak area.
Statistics: Sample nucleosides concentrations were normalized to represent per 1 million cells and presented as means±SEM. The t-test was applied to test for differences between agonist-induced nucleosides in lymphocyte cells from MHS and normal swine. A P<0.05 considered to indicate statistical significance.

lymphocyte cells [2] = experiment: 4CmC-induced adenosine in human lymphocyte / immortalized B cells (Example 3); assay type: cell-based
[3] = tested on: skeletal muscle strips (Vastus lateralis); experiment: caffeine halothane contracture test (CHCT), swine muscle strips
[4] = tested on: biopsied skeletal muscle strips; experiment: caffeine halothane contracture test (CHCT), human muscle strips; settings: 2 mM caffeine, average of 3 muscle strips
Excerpt: Currently definitive MH diagnosis is made by means of the invasive, surgery-requiring caffeine halothane contracture test (CHCT) in North America, by a similar in vitro contracture test (IVCT) in Europe and by technically very difficult calcium induced calcium release (CICR) in Japan; all these tests use biopsied leg muscle (Vasitis lateralis). Other countries are using tests essentially similar to one or these tests. CHCT has a sensitivity of 97% (accurately detects MH susceptible individuals) with a specificity of only 78% (yields 22% false positives). However, because of the invasive surgery, the costs of the test, and the limited viability of the biopsied skeletal muscle samples, the CHCT must be completed within 5 hours post biopsy. Therefore, the muscle biopsies must be conducted at a certified MH diagnostic center or in close-by hospitals (currently there are only 6 MH diagnostic centers in North America). Because of these procedural and logistic complexities, it is estimated that only about 10% of all individuals eligible to undergo the CHCT test are actually tested (estimated from referrals to the North American Malignant Hyperthermia Hotline).

lymphocyte cells [5] = experiment: 4CmC-induced adenosine/inosine in human peripheral blood lymphocytes, HPLC (Example 1); assay type: cell-based; settings: 4CmC-stimulated lymphocytes
Procedure: FIG. 2 is a dose-response curve for 4-chloro-m-cresol (4CmC)-induced intracellular adenosine plus inosine in lymphocyte cells from malignant hyperthermia susceptible (MHS, n=11), not-susceptible (MHN, n=9), and normal (n=7) subjects. Lymphocyte cells were treated with 4CmC in the presence of an inhibitor of adenosine deaminase (EHNA, 0.1 mM). After purification, aliquot was analyzed for adenosine and inosine content using HPLC. Adenosine plus inosine values in the absence of 4CmC are plotted against X=0.02 mM to allow logarithmic display of the entire dose response curve. Adenosine plus inosine levels were normalized to reflect per 1 million cells. 4CmC responses at 1, 2, and 5 mM on MHS groups are about 4, 4, and 6 fold higher than the corresponding values in MI-1N or normal groups with values of 6×10^−5, 8×10^−5, and […], respectively. There were no overlaps between the MHS group and the MHN or normal groups.
Lymphocyte cells from MHS (n=11), MHN (n=9) and normal (n=7) subjects were suspended in normal HBSS plus 0.1% BSA and treated with adenosine deaminase inhibitor (EHNA, 0.1 mM). After 10 minutes of incubation at 37° C., cells were treated with HBSS, with and without the RyR1 agonist 4CmC (5 mM) and incubated at 37° C. for an additional 45 minutes. After termination and purification of the samples, aliquots (50 μl) were assayed in duplicate for adenosine and inosine content using HPLC. Concentrations are normalized to per 1 million cells. The sum of the adenosine plus inosine level is about 6-fold higher than corresponding values in normal and MHN cells.
Pilot studies were conducted using blood samples from human subjects in the following groups: Group 1: MHS subjects with positive CHCT and/or having a known MH associated mutation (n=11); Group 2: non-MH susceptible with negative CHCT results (MHN) (n=9), and Group 3: normal subjects who had not undergone CHCT and had no family history of MH (n=7).
Briefly, venous blood samples (20 ml) were drawn from patients using heparinized blood collection tubes. Peripheral blood lymphocyte cells were isolated from whole blood by the Ficoll-Hypaque centrifugation technique. Briefly, diluted anti-coagulated blood is layered over Ficoll-Hypaque and centrifuged. Mononuclear cells consisting of lymphocytes and some monocytes are recovered at the interface. The cells were washed with the Flanks' balanced salt solution (HBSS) buffer, re-suspended in the HBSS buffer, and treated with different concentration of 4CmC at 37° C. in the presence and/or absence of inhibitor of adenosine deaminase erythro-9-(2-hydroxy-3-nonyl)adenine (EHNA) for about 30 minutes. The cells were then purified by adding an equal volume of 6% HClO4 and centrifuged at 6000 rpm for 10 minutes. Aliquots of the supernatant were analyzed for adenosine and inosine content with HPLC using a Waters Separation Module (Model 2695) equipped with Waters Photodiode Array Detector and Empower software.

[6] = muscle strips from normal swine

SMILES: N#CC(C#N)=NNc1ccc(OC(F)(F)F)cc1 [FCCP, Carbonyl cyanide 4-(trifluoromethoxy) phenylhydrazone]
- ADO level reached with FCCP alone (lymphocyte cells [1]; FCCP 2 and 20 μM, FIG. 14A): 0.1 to 0.12 µM
- effect of FCCP on basal adenosine levels (lymphocyte cells [1]; FCCP 2 and 20 μM, FIG. 14A): significantly increased
- increase of basal ADO levels by FCCP alone (lymphocyte cells [1]; FCCP 2 and 20 μM, normal swine, Ca2+/Mg2+ free HBSS): 4.5 fold
- effect of FCCP on 4CmC-induced ADO formation (lymphocyte cells [1]; both tested FCCP concentrations, 1 mM 4CmC during FCCP treatment (FIG. 14B)): prevented the maximum increase in ADO formation
- effectiveness of FCCP in inducing ADO formation relative to 4CmC (lymphocyte cells [1]; normal swine lymphocytes): 25%

SMILES: C1CCC[C@H]2CCCN3CC[C@@H](CCCCCC[C@@H]4CCCN5CC[C@@H](CC1)O[C@@H]45)O[C@@H]23 [XeC, Xestospongin C]
- effect of XeC alone on basal ADO levels (lymphocyte cells [2]; XeC 1 and 10 μM): did not produce any change
- effect of XeC on response of B cells to 4CmC (lymphocyte cells [2]; immortalized B cells (MHS, n=3), Ca2+ free HBSS, 2 mM 4CmC): did not affect
- effect of XeC on 4CmC-induced ADO (lymphocyte cells [1]; 1 μM XeC, 2 mM 4CmC, normal swine): did also not affect
- decrease of 4CmC-induced ADO by XeC (lymphocyte cells [1]; 10 μM XeC, 2 mM 4CmC, normal swine (n=5)): 27%
- effect of XeC alone on basal ADO levels (lymphocyte cells [1]; XeC 1 and 10 μM, Ca2+/Mg2+-free HBSS): did not affect
- effect of XeC on 4CmC (2 mM)-induced adenosine (lymphocyte cells [1]; XeC as printed in figure legend, normal swine): Significantly (P=0.002) Reduced

SMILES: FC(F)(F)C(Cl)Br (centres unmarked) [Halothane, halothane]
- Halothane (3%)-induced contractures, mean ([3]; muscle strips from MHS swine): 19.2±3.1 mN
- Halothane (3%)-induced contractures, range ([3]; muscle strips from MHS swine): 11.2-33.1 mN
- Halothane (3%)-induced contractures, mean [3, 6]: 1.2±1.0 mN
- Halothane (3%)-induced contractures, range [3, 6]: 0-1.8 mN

SMILES: Cn1c(=O)c2c(ncn2C)n(C)c1=O [Caffeine, caffeine]
- CHCT Results Contractures (g) 2 mM Caf ([4]; Table 1, CHCT-negative subjects): 0 g
- CHCT Results Contractures (g) 2 mM Caf ([4]; Table 2, MHN subjects): 0 g
- Caffeine (2 mM)-induced contractures, range ([3]; muscle strips from MHS swine): 4.7-17.1 mN
- Caffeine (2 mM)-induced contractures, mean [3, 6]: 0.4 mN
- Caffeine (2 mM)-induced contractures, range [3, 6]: 0-1 mN

SMILES: O=C1CN(/N=C/c2ncc(-c3ccc(Br)cc3)o2)C(=O)N1 [azumolene]
- effect of azumolene on 4CmC-induced adenosine (lymphocyte cells [1]; 1 mM 4CmC, normal swine (n=5), Ca2+/Mg2+-free HBSS): only marginally inhibited
- effect of azumolene on 4CmC-induced adenosine (lymphocyte cells [1]; 1 mM 4CmC, normal swine (n=5), Ca2+/Mg2+-free HBSS, listed as Azumolene): did not significantly decrease; also recorded: did not significantly affect
- Ki (lymphocyte cells [1]; non-linear curve fitting, 1 mM 4CmC, read-out: apparent Ki value of azumolene for inhibition of 4CmC-induced ADO formation): ~5 mM

SMILES: CCCCCC[C@@H]([C@@H](C)O)n1cnc2c(N)ncnc21 (racemic) [EHNA, erythro-9(2-hydroxy-3-nonyl)adenine]
- EHNA concentration at which inosine formation decreased, matched by equimolar increase in adenosine (lymphocyte cells [5]): ≥ 10 µM
- inhibition of ADO deaminase by EHNA (lymphocyte cells [2]; immortalized B cells from a CHCT positive (MHS) subject, 4CmC 2 mM, FIG. 4): effectively inhibited
- EHNA concentration at which inosine formation decreased and ADO increased to plateau level (lymphocyte cells [1]; swine lymphocytes (n=3)): ≥ 20 µM
